Measured values as given in patent publication US7687484B2, “Transporter enhanced corticosteroid activity” (priority 2006, dated 2010).
Like-named read-outs stand apart in the source and are kept apart here.

Key:
glucocorticoid receptor [1] = biological target: T1, glucocorticoid receptor (Homo sapiens, UniProt P04150); experiment: Relative binding affinity for the glucocorticoid receptor (GCR/GR); conditions: GRs were calculated from RBAs; read-out: GR Est. IC50
T1 sequence (P04150 1-777): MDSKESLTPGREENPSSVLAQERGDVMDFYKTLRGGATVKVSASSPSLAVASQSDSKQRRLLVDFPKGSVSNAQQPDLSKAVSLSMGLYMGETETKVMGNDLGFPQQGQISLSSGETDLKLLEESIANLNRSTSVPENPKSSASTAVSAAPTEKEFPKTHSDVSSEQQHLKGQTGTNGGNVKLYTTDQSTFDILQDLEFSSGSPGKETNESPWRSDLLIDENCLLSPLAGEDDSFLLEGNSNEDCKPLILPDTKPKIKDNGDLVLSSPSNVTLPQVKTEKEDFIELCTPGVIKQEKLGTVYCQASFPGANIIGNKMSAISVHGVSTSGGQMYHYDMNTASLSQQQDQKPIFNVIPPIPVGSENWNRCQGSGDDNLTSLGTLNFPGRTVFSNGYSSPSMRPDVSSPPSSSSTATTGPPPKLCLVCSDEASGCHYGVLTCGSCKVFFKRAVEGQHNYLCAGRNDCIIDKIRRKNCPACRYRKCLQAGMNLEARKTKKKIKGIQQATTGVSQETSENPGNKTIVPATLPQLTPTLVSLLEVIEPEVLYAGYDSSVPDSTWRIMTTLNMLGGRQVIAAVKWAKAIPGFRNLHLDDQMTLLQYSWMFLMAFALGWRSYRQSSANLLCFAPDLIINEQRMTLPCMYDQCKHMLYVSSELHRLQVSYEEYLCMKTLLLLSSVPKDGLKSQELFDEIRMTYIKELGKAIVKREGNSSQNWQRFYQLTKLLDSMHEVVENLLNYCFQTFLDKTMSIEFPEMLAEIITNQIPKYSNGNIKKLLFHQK

transcortin (CBG) = biological target: T2, transcortin (CBG) (Homo sapiens, UniProt P08185); experiment: Binding of corticosteroids to transcortin: 3H-cortisol competition in charcoal-treated diluted plasma
T2 construct: from tissue; host or cells: plasma from venous blood of healthy volunteers, charcoal-treated, diluted 100-fold
T2 sequence (P08185 23-405): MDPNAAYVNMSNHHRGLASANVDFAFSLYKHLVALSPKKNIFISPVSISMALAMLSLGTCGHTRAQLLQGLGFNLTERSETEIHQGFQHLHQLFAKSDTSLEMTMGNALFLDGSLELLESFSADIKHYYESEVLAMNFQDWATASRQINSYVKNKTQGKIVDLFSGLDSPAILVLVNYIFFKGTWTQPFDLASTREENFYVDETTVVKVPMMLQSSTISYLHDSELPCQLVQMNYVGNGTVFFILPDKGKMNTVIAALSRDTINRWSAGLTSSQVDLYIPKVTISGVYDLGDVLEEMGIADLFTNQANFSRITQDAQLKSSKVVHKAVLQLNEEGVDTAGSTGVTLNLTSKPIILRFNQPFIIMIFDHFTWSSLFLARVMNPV
Method: Experimental procedure: Venous blood was collected from healthy volunteers into heparin-containing tubes (5 Us/100 ml serum) and cells were separated from plasma by centrifugation (1500 g for 15 min). […] Charcoal-treated plasma was diluted 100-fold with binding buffer (10 mM Tris-HCl; 2 mM DTT (dithiotreitol); 1.5 mM EDTA; 0.02 M Na2MoO4; 10% Glycerol; pH 7.4) and was stored aliquoted at −80° C. […] The assay ingredients were mixed and the tubes were incubated for 1 hour on ice. At the end of the incubation, 0.2 ml of charcoal suspension (0.5% Norit A and 0.05% BSA) was added to each tube. The tubes were briefly agitated and incubated for an additional 10 min at 0° C. They were then centrifuged for 10 min at 15 000 g, and the same aliquots from the clear supernatants were quantitatively decanted into counting vials and combined with 3 ml of toluene-based scintillation fluid. […] Specific binding and IC50-values were calculated.

[2] = system: forearms of human volunteers; experiment: Human vasoconstriction (blanching) testing; format: in vivo; set-up: key to Vasoconstriction activity (total score of 4 tests): sum of 4 tests, each 0 = normal skin to 4 = very intense pallor
Method: Solutions of LE, HC and PRN (0.1 or 1 mM) alone, or mixtures of LE and HC (0.1+0.1 mM, or 1+1 mM), or LE and PRN (0.1+0.1 mM, or 1+1 mM) were prepared with a vehicle containing absolute ethanol and propylene glycol (9:1). […] After evaporation of ethanol (20 min), the films were applied to the forearms of human volunteers for 4 hours. Subsequently, the vasoconstriction reaction was read and judged by the appearance of pallor at various time intervals after the removal of the discs and films. The grading scale was as follows: 0, normal skin; 1, slight pallor; 2, pallor with at least two corners outlined; 3, even pallor with a clear outlined of the application sites; 4, very intense pallor. Due to the relatively high variations in response between the volunteers, a total score of 4 tests at each time point was taken for the activity evaluation.

glucocorticoid receptor [3] = biological target: T1, glucocorticoid receptor; conditions: cited from earlier work
[4] = anti-inflammatory activity, LE vs hydrocortisone; cited from earlier work
[5] = logP reported in literature; cited from earlier work

CCOC(=O)O[C@]1(C(=O)OCCl)CC[C@H]2[C@@H]3CCC4=CC(=O)C=C[C@]4(C)[C@H]3[C@@H](O)C[C@@]21C [Loteprednol etabonate, chloromethyl 17α-ethoxycarbonyloxy-11β-hydroxyandrosta-1,4-dien-3-one-17β-carboxylate]
IC50 (glucocorticoid receptor [1]): 0.004 µM | IC50 (transcortin (CBG); 3 nM 3H-cortisol, 1 hour on ice, plasma diluted 100-fold, read-out: IC50-values (nM) average ± SEM (n)): 272 ± 27 nM | IC50 (transcortin (CBG); estimated, unpublished results Bodor, Kurucz 2006, read-out: CBG Est. IC50): 270 nM | Vasoconstriction activity (total score of 4 tests) ([2]; 0.1 mM, 2 hr after removal, 4 h application): 2 | Vasoconstriction activity (total score of 4 tests) ([2]; 0.1 mM, 4 hr after removal): 3 | Vasoconstriction activity (total score of 4 tests) ([2]; 0.1 mM, 6 hr after removal): 5 | Vasoconstriction activity (total score of 4 tests) ([2]; 0.1 mM, 8 hr after removal): 5 | Vasoconstriction activity (total score of 4 tests) ([2]; 0.1 mM, 10 hr after removal): 3 | Vasoconstriction activity (total score of 4 tests) ([2]; 0.1 mM, 16 hr after removal): 1 | Vasoconstriction activity (total score of 4 tests) ([2]; 0.1 mM, 18 hr after removal): 1 | Vasoconstriction activity (total score of 4 tests) ([2]; 0.1 mM, 24 hr after removal): 1 | Vasoconstriction activity (total score of 4 tests) ([2]; 1 mM, 2 hr after removal, 4 h application): 6 | Vasoconstriction activity (total score of 4 tests) ([2]; 1 mM, 4 hr after removal): 7 | Vasoconstriction activity (total score of 4 tests) ([2]; 1 mM, 6 hr after removal): 8 | Vasoconstriction activity (total score of 4 tests) ([2]; 1 mM, 8 hr after removal): 8 | Vasoconstriction activity (total score of 4 tests) ([2]; 1 mM, 10 hr after removal): 9 | Vasoconstriction activity (total score of 4 tests) ([2]; 1 mM, 16 hr after removal): 6 | Vasoconstriction activity (total score of 4 tests) ([2]; 1 mM, 18 hr after removal): 5 | Vasoconstriction activity (total score of 4 tests) ([2]; 1 mM, 24 hr after removal): 2 | Vasoconstriction activity alone (in words) ([2]; by itself, concentration range 0.1 to 1 mM, human skin): good vasoconstriction activity | Increase of vasoconstriction activity of LE by addition of the same amount of HC or PRN ([2]; co-administration of 0.1 mM HC or PRN): 60-80% | Increase of vasoconstriction activity of LE by addition of the same amount of HC or PRN ([2]; co-administration of 1 mM HC or PRN): 60-75% | Intrinsic activity in in vitro receptor binding studies (in words) (glucocorticoid receptor [3]; Druzgala et al. 1991, [3H]-triamcinolone acetonide tracer, 10^−5M cortienic acid as competitor): intrinsically active | rBA (relative receptor binding affinity) (glucocorticoid receptor [3]; relative to dexamethasone = 100, average of all values if multiple available): 150 | Activity relative to hydrocortisone [4]: approximately 20 times | logP [5]: 3.03
